{"source": "patent US7951548B2", "about": "“IL-13 production inhibitor” (Takeda Pharmaceutical Company Limited, priority 2005, dated 2011)", "test_system": "rat peritoneal mast cells", "test": "Expression of IL-13 in rat peritoneal mast cells (TaqMan PCR, GAPDH corrected)", "assay_type": "cell-based", "procedure": "Rat peritoneal mast cells (hereinafter RPMC) were prepared as follows. Ice-chilled mast cell medium (hereinafter MCM; 150 mM NaCl, 3.7 mM KCl, 3.0 mM NaH2PO4, 3.5 mM KH2PO4, 5.6 mM (D)-Glucose, 0.1% bovine serum albumin (hereinafter BSA), 0.1% gelatin, 10 U/ml heparin, pH 6.8) was injected into the peritoneal cavity in about 40 ml/animal. After some massage of the rat abdominal region for about 2 minutes, the peritoneal cavity was opened along the median line to drain the ascitic fluid. The ascetic fluid prepared was filtered through a cell strainer (Becton Dickinson) and centrifuged at 50×g for 7 minutes. The cells precipitated were suspended in MCM and centrifuged again at 50×g for 7 minutes. After the precipitated cells were resuspended in MCM, the suspension was layered on 2 ml of 32% (w/v) BSA solution (dissolved in 0.9% NaCl), which was allowed to stand at room temperature for 20 minutes. After centrifugation was conducted at ×300 g for 15 minutes at room temperature, the cells in the interphase between MCM and BSA solution were discarded and the precipitated cells were suspended in MCM. The suspension was centrifuged at ×300 g for 5 minutes to wash the cells twice. The precipitated cells were suspended in assay buffer (RPMI 1640 medium (Invitrogen), 0.1% BSA) and the cells were provided for the following experiment. […] RPMC was activated as follows. RPMC was suspended in assay buffer and 10 μg/ml of monoclonal mouse antibody DNP-IgE (Yamasa) was added thereto. The mixture was allowed to stand for 30 minutes on ice for passive sensitization. After centrifugation at ×300 g for 5 minutes, the precipitated cells were washed 3 times with assay buffer. RPMC suspended in assay buffer was dispensed into a 96 well V-bottomed plate in 2×10^5/well. The assay was performed at n=3 under the respective reaction conditions. After a plate was kept warm at 37° C. for 5 minutes, lysoPS (Sigma) of 3 μM in a final concentration or DNP-BSA (Carbiochem) of 100 ng/ml in a final concentration was added depending on the assay conditions and the plate was allowed to stand at 37° C. in a 5% CO2 incubator. The plate was ice-cooled 2, 4, 6 and 8 hours after to terminate the activation of RPMC. Centrifugation was performed at ×300 g for 5 minutes and the total RNA was extracted from the cells precipitated using RNeasy Mini Kit (Qiagen) in accordance with the protocol attached. The obtained total RNA was concentrated and dissolved in RNase-free H2O in accordance with the protocol attached. Next, using 250 ng of the total RNA, reverse transcription was performed by the following procedure using SuperScript II ReverseTranscriptase (Invitrogen) to prepare single-stranded cDNA. After 0.5 μg of Oligo (dT) 12-18 primer (Invitrogen) and 1 μl of 10 mM dNTP (Invitrogen) were added to the total RNA solution and then RNase-free H2O was added to make the whole volume 12 μl, incubation was performed at 70° C. for 10 minutes followed by ice cooling for a minute. After adding 4 μl of 5× First-Strand Buffer (attached to SuperScript II ReverseTranscriptase), 2 μl of 0.1M DTT (attached to SuperScript II ReverseTranscriptase), 1 μl of RNaseOUT (Invitrogen) and 1 μl of SuperScript II ReverseTranscriptase, incubation was performed at 42° C. for 50 minutes and then at 70° C. for 15 minutes, followed by ice cooling for 5 minutes. The thus prepared cDNA was purified using Ethachinmate in accordance with the protocol attached and dissolved in Tris-EDTA Buffer (Fluka).\nIn TaqMan PCR below, rIL-13-tF (SEQ ID NO: 24) and rIL-13-tR (SEQ ID NO: 25) were used as primers and rIL-13-tP (SEQ ID NO: 26) as a probe for quantification of rat IL-13 (interleukin-13) and rIL-13 standard (SEQ ID NO: 27) was used as a standard. TaqMan Rodent GAPDH Control Reagents VIC Probe (Applied Biosystems) were used as primers and a probe for quantification of GAPDH, and rGAPDH standard (SEQ ID NO: 28) was used as a standard. […]", "key": {"[1]": {"details": "antigen (DNP-BSA 100 ng/ml)+lysoPS 3 μM, 4 hours after the stimulation"}, "[2]": {"details": "antigen+lysoPS 3 μM, 6 after the stimulation"}, "[3]": {"details": "antigen+lysoPS 3 μM, 8 hours after the stimulation"}}, "data": [{"substance": "lysophosphatidylserine [lysoPS]", "values": [{"measurement": "expression level of IL-13 after GAPDH correction, compared to stimulation by the antigen alone", "setting": "[1]", "value": "about 36 times"}, {"measurement": "expression level of IL-13 after GAPDH correction, compared to the level without any stimulation", "setting": "[1]", "value": "about 27 times"}, {"measurement": "expression level of IL-13, compared to stimulation by the antigen alone", "setting": "[2]", "value": "about 19 times"}, {"measurement": "expression level of IL-13, compared to the level without any stimulation", "setting": "[2]", "value": "about 13 times"}, {"measurement": "expression level of IL-13 after GAPDH correction, compared to stimulation by the antigen alone", "setting": "[3]", "value": "about 27 times"}, {"measurement": "expression level of IL-13 after GAPDH correction, compared to the level without any stimulation", "setting": "[3]", "value": "about 13 times"}, {"measurement": "expression level of IL-13 (in words)", "setting": "stimulated by the antigen+lysoPS", "value": "marked increase in expression"}]}]}
